Where two headings read alike, the source gives them in different places.
What was measured:
Boophilus microplus = Boophilus microplus - injection test; assay type: in vivo; conditions: application rate 20 μg/animal; injected into engorged adult female ticks; laying of fertile eggs, after 7 days
Protocol: Boophilus microplus—Injection Test
(§1) Solvent: dimethyl sulphoxide
To produce an appropriate active ingredient formulation, 10 mg of active ingredient are mixed with 0.5 ml of solvent and the concentrate is diluted with solvent to the desired concentration.
1 μl of the active ingredient solution is injected into the abdomen of 5 engorged adult female cattle ticks (Boophilus microplus). The animals are transferred into dishes and kept in a climate-controlled room.
Efficacy is assessed after 7 days by laying of fertile eggs. Eggs which are not visibly fertile are stored in a climate-controlled cabinet until the larvae hatch after about 42 days. An efficacy of 100% means that none of the ticks has laid any fertile eggs; 0% means that all the eggs are fertile.

[1] = logP determination by HPLC on a reversed-phase column (C18), EEC Directive 79/831 Annex V.A8; assay type: physicochemical; conditions: for logP^a): HPLC-MS method a), Table I-T3
Lucilia cuprina = Lucilia cuprina test; assay type: in vivo; conditions: application rate 100 ppm, L1 larvae in minced horsemeat, kill after 2 days
Protocol: as §1
To produce an appropriate active ingredient formulation, 10 mg of active ingredient are mixed with 0.5 ml of dimethyl sulphoxide, and the concentrate is diluted with water to the desired concentration.
About 20 L1 larvae of the Australian sheep blowfly (Lucilia cuprina) are transferred into a test vessel containing minced horsemeat and the active ingredient preparation of the desired concentration.
After 2 days, the kill in % is determined. 100% means that all the larvae have been killed; 0% means that none of the larvae have been killed.

Ctenocephalides felis = Ctenocephalides felis - oral test; assay type: in vivo; conditions: application rate 100 ppm in citrated cattle blood; adult fleas; kill after 2 days
Protocol: Ctenocephalides felis—Oral Test
as §1
For the purpose of producing an appropriate active ingredient formulation, 10 mg of active ingredient are mixed with 0.5 ml of dimethyl sulphoxide. Dilution with citrated cattle blood gives the desired concentration.
About 20 unfed adult cat fleas (Ctenocephalides felis) are placed into a chamber which is closed at the top and bottom with gauze. A metal cylinder whose bottom end is closed with parafilm is placed onto the chamber. The cylinder contains the blood/active ingredient preparation, which can be imbibed by the fleas through the parafilm membrane.
After 2 days, the kill in % is determined. 100% means that all of the fleas have been killed; 0% means that none of the fleas have been killed.

[2] = HPLC-MS, reversed-phase column (C18)
[3] = HPLC on reversed-phase column (C18)
[4] = HPLC, reversed-phase C18, acetonitrile/water with formic acid, 55° C.

Cc1cc(C(F)(C(F)(F)F)C(F)(F)F)cc(C)c1-c1ccn(-c2ccc(Cl)c(C(=O)NC3(C#N)CC3)c2)n1 [I-T2-2]
efficacy (Boophilus microplus): 100%

Cc1cc(C(F)(C(F)(F)F)C(F)(F)F)cc(C)c1-n1cc(-c2ccc(Cl)c(C(=O)NCC(=O)NCC(F)(F)F)c2)cn1 [I-T3-6]
logP^a) [1]: 4.1 | efficacy (Boophilus microplus): 100% | efficacy (Lucilia cuprina): 100%

Cc1cc(C(F)(C(F)(F)F)C(F)(F)F)cc(C)c1-n1cc(-c2cc(C(=O)NC3CC3)c(F)cc2Cl)cn1 [I-T3-11]
logP^a) [1]: 4.9 | efficacy (Boophilus microplus): 100% | efficacy (Ctenocephalides felis): 95%

Cc1cc(C(F)(C(F)(F)F)C(F)(F)F)cc(C)c1-n1cc(-c2cc(C(=O)NC3CC3)ccc2F)cn1 [I-T3-13]
logP^a) [1]: 4.5 | efficacy (Boophilus microplus): 100% | efficacy (Ctenocephalides felis): 80%

Cc1ccc(C(=O)NC2CC2)cc1-c1cnn(-c2c(C)cc(C(F)(C(F)(F)F)C(F)(F)F)cc2C)c1 [I-T3-16]
logP^a) [1]: 4.4 | efficacy (Ctenocephalides felis): 80%

Cc1cc(C(F)(C(F)(F)F)C(F)(F)F)cc(C)c1-n1cc(-c2cc(C(=O)NC3(C#N)CC3)ccc2F)cn1 [I-T3-19]
logP^a) [1]: 4.3 | efficacy (Boophilus microplus): 100% | efficacy (Ctenocephalides felis): 95%

Cc1cc(C(F)(C(F)(F)F)C(F)(F)F)cc(C)c1-n1cc(-c2ncc(Cl)c(C(=O)NC3CC3)n2)cn1 [I-T3-121, 5-chloro-N-cyclopropyl-2-[1-[2,6-dimethyl-4-[1,2,2,2-tetrafluoro-1-(trifluoromethyl)ethyl]phenyl]pyrazol-4-yl]pyrimidine-4-carboxamide]
chromatographic logP ([1]; reversed-phase HPLC column (C18), HPLC, reversed-phase C18, acetonitrile/water with formic acid, 55° C., read-out: logP): 4.5 | chromatographic logP ([1]; reversed-phase HPLC column (C18), HPLC-MS method a), reversed-phase column (C18); read-out: logP^a)): 4.5 | chromatographic logP ([1]; reversed-phase HPLC column (C18), HPLC-MS, reversed-phase column (C18), read-out: log P): 4.5 | pest or weed control at 100 ppm (Lucilia cuprina; Lucilia cuprina, 48 h, read-out: efficacy): 80%

O=C(NC1CC1)c1cc(-c2cnn(-c3c(Cl)cc(C(F)(C(F)(F)F)C(F)(F)F)cc3Cl)c2)cnc1N1CCCC1 [I-T3-135]
log P [1, 2]: 4.3 | efficacy (Ctenocephalides felis): 100%

Cc1cc(C(F)(C(F)(F)F)C(F)(F)F)cc(C)c1-n1cc(-c2cnc(C3CC3)c(C(=O)N(C)C3CC3)c2)cn1 [I-T3-142]
log P [1, 2]: 4.6 | efficacy (Boophilus microplus): 100%

CCS(=O)(=O)c1cc(C(F)(C(F)(F)F)C(F)(F)F)cc(Cl)c1-n1cc(-c2ccc(Cl)c(C(=O)NC3(C#N)CC3)c2)cn1 [I-T3-201]
log P [1, 3]: 4.0

CCSc1cc(C(F)(C(F)(F)F)C(F)(F)F)cc(C)c1-n1cc(-c2ccc(Cl)c(C(=O)NC3(C#N)CC3)c2)cn1 [I-T3-202]
log P [1, 3]: 4.5

CCSc1cc(C(F)(C(F)(F)F)C(F)(F)F)cc(C)c1-n1cc(-c2ccc(Cl)c(C(=O)NC3CC3)c2)cn1 [I-T3-203]
log P [1, 3]: 4.6

CN(C(=O)c1cc(-c2cnn(-c3c(Cl)cc(C(F)(C(F)(F)F)C(F)(F)F)cc3C#N)c2)cnc1Cl)C1CC1 [I-T3-204]
log P [1, 3]: 3.9

N#Cc1cc(C(F)(C(F)(F)F)C(F)(F)F)cc(Cl)c1-n1cc(-c2cnc(Cl)c(C(=O)NC3CC3)c2)cn1 [I-T3-205]
log P [1, 3]: 3.5

CC[S+]([O-])c1cc(C(F)(C(F)(F)F)C(F)(F)F)cc(C)c1-n1cc(-c2ccc(Cl)c(C(=O)NC3(C#N)CC3)c2)cn1 (stereo not drawn) [I-T3-206]
log P [1, 3]: 3.6

N#Cc1cc(C(F)(C(F)(F)F)C(F)(F)F)cc(Cl)c1-n1cc(-c2cnc(Cl)c(C(=O)NC3(C#N)CC3)c2)cn1 [I-T3-207]
log P [1, 3]: 3.5

CN(C(=O)c1cc(-c2cnn(-c3c(Cl)cc(C(F)(C(F)(F)F)C(F)(F)F)cc3OC(F)(F)F)c2)cnc1Cl)C1CC1 [I-T3-208]
log P [1, 3]: 4.6

CCS(=O)(=O)c1cc(C(F)(C(F)(F)F)C(F)(F)F)cc(C)c1-n1cc(-c2ccc(Cl)c(C(=O)NC3(C#N)CC3)c2)cn1 [I-T3-209]
log P [1, 3]: 3.8

CCS(=O)(=O)c1cc(C(F)(C(F)(F)F)C(F)(F)F)cc(C)c1-n1cc(-c2ccc(Cl)c(C(=O)NC3CC3)c2)cn1 [I-T3-210]
log P [1, 3]: 3.9

CCOc1cc(C(F)(C(F)(F)F)C(F)(F)F)cc(OCC)c1-n1cc(-c2cnc(Cl)c(C(=O)N(C)C3CC3)c2)cn1 [I-T3-211]
log P [1, 3]: 4.7

N#CC1(NC(=O)c2cc(-c3cnn(-c4c(Cl)cc(C(F)(C(F)(F)F)C(F)(F)F)cc4I)c3)ccc2Cl)CC1 [I-T3-212]
log P [1, 3]: 4.3

O=C(NC1CC1)c1cc(-c2cnn(-c3c(Cl)cc(C(F)(C(F)(F)F)C(F)(F)F)cc3I)c2)ccc1Cl [I-T3-213]
log P [1, 3]: 4.4

O=C(NC1CC1)c1cc(-c2cnn(-c3c(Cl)cc(C(F)(C(F)(F)F)C(F)(F)F)cc3OC(F)F)c2)ccc1Cl [I-T3-214]
log P [1, 3]: 4.3

N#CC1(NC(=O)c2cc(-c3cnn(-c4c(Cl)cc(C(F)(C(F)(F)F)C(F)(F)F)cc4OC(F)F)c3)ccc2Cl)CC1 [I-T3-215]
log P [1, 3]: 4.1

CN(C(=O)c1cc(-c2cnn(-c3c(Cl)cc(C(F)(C(F)(F)F)C(F)(F)F)cc3OC(F)F)c2)ccc1Cl)C1CC1 [I-T3-216]
log P [1, 3]: 4.7

CN(C(=O)c1cc(-c2cnn(-c3c(Cl)cc(C(F)(C(F)(F)F)C(F)(F)F)cc3OC(F)F)c2)cnc1Cl)C1CC1 [I-T3-217]
log P [1, 3]: 4.2

N#CC1(NC(=O)c2cc(-c3cnn(-c4c(Cl)cc(C(F)(C(F)(F)F)C(F)(F)F)cc4OC(F)F)c3)cnc2Cl)CC1 [I-T3-218]
log P [1, 3]: 3.7

CN(C(=O)c1cc(-c2cnn(-c3c(Cl)cc(C(F)(C(F)(F)F)C(F)(F)F)cc3OC(F)(F)F)c2)ccc1Cl)C1CC1 [I-T3-219]
log P [1, 3]: 5.1

CN(C(=O)c1cc(-c2cnn(-c3c(Cl)cc(C(O)(C(F)(F)F)C(F)(F)F)cc3Cl)c2)cnc1Cl)C1CC1 [I-T3-220]
log P [1, 3]: 3.4

O=C(NC1CC1)c1cc(-c2cnn(-c3c(Cl)cc(C(O)(C(F)(F)F)C(F)(F)F)cc3Cl)c2)cnc1Cl [I-T3-221]
log P [1, 3]: 3.0

N#CC1(NC(=O)c2cc(-c3cnn(-c4c(Cl)cc(C(O)(C(F)(F)F)C(F)(F)F)cc4Cl)c3)cnc2Cl)CC1 [I-T3-222]
log P [1, 3]: 3.0

CN(C(=O)c1cc(-c2cnn(-c3c(Cl)cc(C(O)(C(F)(F)F)C(F)(F)F)cc3Cl)c2)cnc1Cl)C1(C#N)CC1 [I-T3-223]
log P [1, 3]: 3.3

O=C(NC1CC1)c1cc(-c2cnn(-c3c(I)cc(C(F)(C(F)(F)F)C(F)(F)F)cc3OC(F)(F)F)c2)ccc1Cl [I-T3-224]
log P [1, 3]: 4.7

CN(C(=O)c1cc(-c2cnn(-c3c(I)cc(C(F)(C(F)(F)F)C(F)(F)F)cc3OC(F)(F)F)c2)ccc1Cl)C1CC1 [I-T3-225]
log P [1, 3]: 5.2

N#CC1(NC(=O)c2cc(-c3cnn(-c4c(I)cc(C(F)(C(F)(F)F)C(F)(F)F)cc4OC(F)(F)F)c3)ccc2Cl)CC1 [I-T3-226]
log P [1, 3]: 4.6

O=C(NC1CC1)c1cc(-c2cnn(-c3c(I)cc(C(F)(C(F)(F)F)C(F)(F)F)cc3C(F)(F)F)c2)ccc1Cl [I-T3-227]
log P [1, 3]: 4.5

N#CC1(NC(=O)c2cc(-c3cnn(-c4c(I)cc(C(F)(C(F)(F)F)C(F)(F)F)cc4C(F)(F)F)c3)ccc2Cl)CC1 [I-T3-228]
log P [1, 3]: 4.4

CN(C(=O)c1cc(-c2cnn(-c3c(I)cc(C(F)(C(F)(F)F)C(F)(F)F)cc3C(F)(F)F)c2)ccc1Cl)C1CC1 [I-T3-229]
log P [1, 3]: 5.1

Cc1cc(C(F)(C(F)(F)F)C(F)(F)F)cc(C)c1-n1ccc(-c2ccc(Cl)c(C(=O)NC3(C#N)CC3)c2)c1 [I-T46-1]
logP [1, 4]: 4.90

CN(C(=O)c1cc(-c2ccn(-c3c(Cl)cc(C(F)(C(F)(F)F)C(F)(F)F)cc3Cl)c2)cnc1Cl)C1CC1 [I-T46-3]
logP [1, 4]: 5.0

O=C(NC1CC1)c1cc(-c2ccn(-c3c(Cl)cc(C(F)(C(F)(F)F)C(F)(F)F)cc3Cl)c2)cnc1Cl [I-T46-4]
logP [1, 4]: 4.5

N#CC1(NC(=O)c2cc(-c3ccn(-c4c(Cl)cc(C(F)(C(F)(F)F)C(F)(F)F)cc4Cl)c3)cnc2Cl)CC1 [I-T46-5]
logP [1, 4]: 4.4

CN(C(=O)c1cc(-c2ccn(-c3c(Cl)cc(C(F)(C(F)(F)F)C(F)(F)F)cc3Cl)c2)cnc1Cl)C1(C#N)CC1 [I-T46-6]
logP [1, 4]: 4.8
